{"source": "paper PMC3401626", "about": "(Chemmedchem, 2011)", "key": {"[1]": {"conditions": "cited from earlier work"}, "Eis [2]": {"target": "T1, Eis (Mycobacterium tuberculosis, UniProt P9WFK7)", "T1 sequence (P9WFK7 whole entry)": "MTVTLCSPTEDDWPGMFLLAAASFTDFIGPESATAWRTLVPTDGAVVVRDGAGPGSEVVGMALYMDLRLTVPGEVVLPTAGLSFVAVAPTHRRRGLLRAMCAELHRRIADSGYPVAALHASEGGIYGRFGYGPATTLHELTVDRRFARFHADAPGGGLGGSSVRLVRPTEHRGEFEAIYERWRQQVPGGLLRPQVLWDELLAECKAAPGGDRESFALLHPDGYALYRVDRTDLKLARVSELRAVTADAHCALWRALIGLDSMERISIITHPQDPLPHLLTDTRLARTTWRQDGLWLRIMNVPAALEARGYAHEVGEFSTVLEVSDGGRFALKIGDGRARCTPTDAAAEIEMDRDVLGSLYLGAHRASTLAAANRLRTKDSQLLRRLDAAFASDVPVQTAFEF", "assay": "Eis inhibition, UV-Vis DTNB assay of aminoglycoside acetylation", "assay_type": "biochemical", "conditions": "at least 3 trials"}, "Eis [3]": {"target": "T1, Eis", "assay": "Mode of inhibition of Eis", "assay_type": "biochemical", "conditions": "for Mode of inhibition against NEO: varying NEO 50-200 μM"}, "AAC(6′)/APH(2″)-Ia": {"target": "AAC(6′)/APH(2″)-Ia (Staphylococcus aureus, UniProt P0A0C1)", "sequence (P0A0C1 whole entry)": "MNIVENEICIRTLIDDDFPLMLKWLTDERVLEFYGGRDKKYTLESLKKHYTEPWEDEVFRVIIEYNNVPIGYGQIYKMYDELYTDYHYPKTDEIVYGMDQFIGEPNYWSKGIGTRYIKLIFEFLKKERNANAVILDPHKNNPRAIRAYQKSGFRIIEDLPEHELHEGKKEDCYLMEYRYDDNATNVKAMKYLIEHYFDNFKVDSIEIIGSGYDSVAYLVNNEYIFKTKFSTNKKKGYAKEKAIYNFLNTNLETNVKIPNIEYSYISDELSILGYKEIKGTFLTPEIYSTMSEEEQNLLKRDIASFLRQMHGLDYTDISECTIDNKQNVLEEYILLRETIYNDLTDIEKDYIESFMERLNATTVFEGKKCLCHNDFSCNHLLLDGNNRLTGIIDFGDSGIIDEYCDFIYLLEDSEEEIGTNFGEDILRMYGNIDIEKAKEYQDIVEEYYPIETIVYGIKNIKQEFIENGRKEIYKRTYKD", "assay": "Inhibitors' selectivity: AAC", "assay_type": "biochemical", "conditions": "inhibitor 200 to 0.2 μM; enzyme 0.25 μM"}, "AAC(2′)-Ic": {"target": "AAC(2′)-Ic (Mycobacterium tuberculosis, UniProt P9WQG9)", "sequence (P9WQG9 whole entry)": "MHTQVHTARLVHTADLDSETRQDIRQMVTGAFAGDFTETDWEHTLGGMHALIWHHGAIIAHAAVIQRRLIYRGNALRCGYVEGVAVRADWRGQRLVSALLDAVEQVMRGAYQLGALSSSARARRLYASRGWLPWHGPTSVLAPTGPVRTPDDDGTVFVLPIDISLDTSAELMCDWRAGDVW", "assay": "Inhibitors' selectivity: AAC", "assay_type": "biochemical, Mtb", "conditions": "inhibitor 200 to 0.2 μM"}, "AAC(3)-IV": {"target": "T2, AAC(3)-IV (Salmonella sp, UniProt P08988)", "T2 sequence (P08988 with tags, fused parts or gaps limits assumed)": "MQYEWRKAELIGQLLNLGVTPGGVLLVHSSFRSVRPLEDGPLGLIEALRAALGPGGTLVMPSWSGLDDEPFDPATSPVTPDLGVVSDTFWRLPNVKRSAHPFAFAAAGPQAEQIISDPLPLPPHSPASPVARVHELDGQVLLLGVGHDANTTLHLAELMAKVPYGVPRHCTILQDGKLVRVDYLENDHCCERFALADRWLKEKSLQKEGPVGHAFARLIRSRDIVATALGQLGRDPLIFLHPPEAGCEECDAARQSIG", "assay": "Inhibitors' selectivity: AAC", "assay_type": "biochemical, Escherichia coli", "conditions": "inhibitor 200 to 0.2 μM; enzyme 0.25 μM"}}, "data": [{"smiles": "[H]/N=C(\\N/C(=N/[H])NCCCCCCNC(=N)NC(=N)Nc1ccc(Cl)cc1)Nc1ccc(Cl)cc1", "note": "[Compound 6, chlorhexidine]", "values": [{"measurement": "toxic effects on pulmonary tissues", "setting": "[1]", "value": "toxic effects on pulmonary tissues"}, {"measurement": "IC50", "setting": "Eis [2]; Eis inhibition constants (IC50) using AMK, substrate AMK", "value": "321 ± 58", "unit": "nM"}, {"measurement": "IC50", "setting": "Eis [2]; Eis inhibition constants (IC50) using KAN, substrate KAN", "value": "666 ± 193", "unit": "nM"}, {"measurement": "Mode of inhibition against AMK", "setting": "Eis [3]; substrate AMK, listed as chlorhexidine (6)", "value": "AG-competitive inhibitor"}, {"measurement": "Mode of inhibition against KAN", "setting": "Eis [3]; substrate KAN, listed as chlorhexidine (6)", "value": "AG-competitive inhibitor"}, {"measurement": "Mode of inhibition against NEO", "setting": "Eis [3]", "value": "competitive inhibitor"}, {"measurement": "Mode of inhibition against NEO", "setting": "Eis [3]; listed as chlorhexidine (6)", "value": "AG-competitive inhibitor"}, {"measurement": "inhibition of AAC(6′)/APH(2″)", "setting": "AAC(6′)/APH(2″)-Ia", "value": "no significant inhibition"}, {"measurement": "inhibition of AAC(2′)-Ic", "setting": "AAC(2′)-Ic", "value": "no significant inhibition"}, {"measurement": "inhibition of AAC(3)-IV", "setting": "AAC(3)-IV", "value": "no significant inhibition"}]}]}
